# Test results reported in US4550186A, “Binuclear copper (II) carboxylates formed from amine-carboxyboranes” (Duke University, priority 1983, dated 1985).
# Biological target: T1, transfer ribonucleic acid polymerase (Mus musculus, UniProt B2RXC6+P59470)
# T1 sequence (B2RXC6 1-1390): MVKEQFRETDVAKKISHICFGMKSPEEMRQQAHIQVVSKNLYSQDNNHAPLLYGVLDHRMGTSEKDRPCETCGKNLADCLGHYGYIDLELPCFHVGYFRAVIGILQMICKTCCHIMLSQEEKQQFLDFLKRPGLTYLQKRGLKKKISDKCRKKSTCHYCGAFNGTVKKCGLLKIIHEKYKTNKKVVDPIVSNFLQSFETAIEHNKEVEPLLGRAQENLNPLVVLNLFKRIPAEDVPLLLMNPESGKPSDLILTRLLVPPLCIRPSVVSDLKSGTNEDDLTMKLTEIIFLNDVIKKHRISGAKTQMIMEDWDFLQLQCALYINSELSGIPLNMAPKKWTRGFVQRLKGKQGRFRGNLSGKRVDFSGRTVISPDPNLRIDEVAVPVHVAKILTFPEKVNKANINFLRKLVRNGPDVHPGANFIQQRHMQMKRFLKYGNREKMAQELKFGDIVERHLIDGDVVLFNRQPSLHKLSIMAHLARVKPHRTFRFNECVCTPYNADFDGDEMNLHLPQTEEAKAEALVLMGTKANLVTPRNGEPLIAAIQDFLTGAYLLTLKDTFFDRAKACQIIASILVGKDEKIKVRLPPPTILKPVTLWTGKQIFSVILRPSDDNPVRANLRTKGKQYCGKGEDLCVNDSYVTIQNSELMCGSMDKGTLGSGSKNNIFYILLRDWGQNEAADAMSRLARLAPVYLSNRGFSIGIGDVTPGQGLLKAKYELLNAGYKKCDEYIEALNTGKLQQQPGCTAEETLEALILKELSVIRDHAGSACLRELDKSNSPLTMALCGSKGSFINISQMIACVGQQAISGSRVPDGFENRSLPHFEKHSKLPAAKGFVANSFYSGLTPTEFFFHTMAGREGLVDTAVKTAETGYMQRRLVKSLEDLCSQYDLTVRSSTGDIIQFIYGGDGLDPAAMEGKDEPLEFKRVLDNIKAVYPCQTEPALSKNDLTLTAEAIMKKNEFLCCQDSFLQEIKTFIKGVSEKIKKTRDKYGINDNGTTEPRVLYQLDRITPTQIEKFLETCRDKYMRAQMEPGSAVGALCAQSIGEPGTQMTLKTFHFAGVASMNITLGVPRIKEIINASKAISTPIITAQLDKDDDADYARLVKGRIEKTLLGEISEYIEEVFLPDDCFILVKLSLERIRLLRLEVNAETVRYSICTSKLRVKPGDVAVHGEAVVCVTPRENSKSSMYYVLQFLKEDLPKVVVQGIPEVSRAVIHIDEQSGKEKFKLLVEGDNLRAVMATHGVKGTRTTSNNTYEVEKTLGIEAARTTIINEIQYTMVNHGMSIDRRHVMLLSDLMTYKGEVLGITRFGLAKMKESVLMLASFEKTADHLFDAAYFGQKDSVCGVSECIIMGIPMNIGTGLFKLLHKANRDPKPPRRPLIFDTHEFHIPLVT
# T1 sequence (P59470 1-1133): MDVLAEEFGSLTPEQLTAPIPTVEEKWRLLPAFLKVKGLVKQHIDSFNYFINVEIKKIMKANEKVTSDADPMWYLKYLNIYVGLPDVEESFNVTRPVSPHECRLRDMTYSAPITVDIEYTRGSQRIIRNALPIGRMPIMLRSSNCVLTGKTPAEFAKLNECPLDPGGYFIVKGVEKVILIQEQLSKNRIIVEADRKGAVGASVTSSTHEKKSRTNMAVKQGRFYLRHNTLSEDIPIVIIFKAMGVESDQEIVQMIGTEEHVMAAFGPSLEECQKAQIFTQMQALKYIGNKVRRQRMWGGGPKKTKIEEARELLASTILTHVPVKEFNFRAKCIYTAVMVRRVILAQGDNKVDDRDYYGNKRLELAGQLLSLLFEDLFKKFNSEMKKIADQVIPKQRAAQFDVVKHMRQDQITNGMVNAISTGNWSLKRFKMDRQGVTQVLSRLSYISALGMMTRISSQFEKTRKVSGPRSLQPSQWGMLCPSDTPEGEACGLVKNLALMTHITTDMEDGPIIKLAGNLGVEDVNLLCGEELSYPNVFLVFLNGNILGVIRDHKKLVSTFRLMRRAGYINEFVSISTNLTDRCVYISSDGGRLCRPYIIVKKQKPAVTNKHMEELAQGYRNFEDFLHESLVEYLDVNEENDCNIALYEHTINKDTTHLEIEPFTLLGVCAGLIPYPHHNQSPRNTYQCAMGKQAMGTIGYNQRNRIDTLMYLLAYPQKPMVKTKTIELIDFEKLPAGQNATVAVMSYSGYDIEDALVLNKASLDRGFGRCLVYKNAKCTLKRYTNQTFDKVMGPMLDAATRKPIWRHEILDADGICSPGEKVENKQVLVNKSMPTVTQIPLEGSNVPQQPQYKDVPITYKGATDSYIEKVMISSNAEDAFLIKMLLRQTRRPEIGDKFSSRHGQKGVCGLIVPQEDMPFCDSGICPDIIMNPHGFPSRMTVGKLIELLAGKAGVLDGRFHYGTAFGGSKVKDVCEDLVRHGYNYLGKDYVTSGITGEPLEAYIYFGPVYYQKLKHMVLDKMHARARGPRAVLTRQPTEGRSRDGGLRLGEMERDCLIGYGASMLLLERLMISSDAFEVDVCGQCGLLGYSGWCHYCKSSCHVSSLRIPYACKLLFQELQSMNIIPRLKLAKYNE
# Assay: In vivo transfer ribonucleic acid polymerase activity
# Protocol: CF1 male mice (~30 g) were implanted with 2×10^6 Ehrlich ascites tumor cells, intraperitoneally on Day 0. Compound I was suspended by homogenation in 0.05% polysorbate.80-water and administered intraperitoneally at 10 and 20 mg/kg for 9 days to determine its effectiveness for inhibition of tumor growth. Mice were sacrificed on Day 10, and the ascites fluid was collected from the peritoneal cavity. The volume and ascrit (packed cell volume) were determined for each animal and the percent inhibition of tumor growth was calculated. For the metabolic studies, mice were treated on Days 8 and 9 with 10 mg/kg of Compound I, intraperitoneally. The animal was sacrificed on Day 10 and the ascites fluid harvested. The in vitro metabolic studies were performed at […] final concentration of Compound I.
# In vitro and in vivo nuclear deoxyribonucleic acid polymerase activity was determined on isolated Ehrlich ascites cell nuclei. The incubation was that described by Sawada et al [Can. Res., 34, 3341 (1974)] except that [methyl-^3 H] deoxythymidine triphosphate (82.4 Ci/mmol) was used. The acid insoluble nucleic acid was collected on GF/F filters and counted. Nuclear ribonucleic acid polymerase activities were determined on enzymes isolated from nuclei. […] The acid insoluble ribonucleic acid was collected on nitrocellulose filters and counted.
substance,measurement,setting,value
{Cu[(CH3)3 N.BH2 CO2 ]2.(CH3)3 N.BH2 COOH} [Compound I],transfer ribonucleic acid polymerase activity suppressed,,37%
same,Transfer ribonucleic acid polymerase activity,10 mg/kg/day I.P. on Days 8 and 9,63 ± 7 % Control
